The values that follow come from the supplement of paper PMC10307832.

Common to all, as to test: relative viability (nuclei count vs DMSO), 5 days (fraction); higher = more cells survive
Compound in the experiment “IU1-47 + Trametinib”: CC1=CC(=C(N1C2=CC=C(C=C2)Cl)C)C(=O)CN3CCCCC3 [IU1-47] + CC(=O)Nc1cccc(-n2c(=O)n(C3CC3)c(=O)c3c(Nc4ccc(I)cc4F)n(C)c(=O)c(C)c32)c1 [Trametinib] (partner 0.02 µM)
In a few lines:
(§1)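 Relative viability was taken as the ratio of nuclei in treated wells to nuclei in vehicle wells. Lung cancer cell lines in 1536-well plates received compounds by pin tool one day after seeding, either one drug alone or a fixed anchor-drug dose plus five library-drug doses (not always all listed) in √10 steps. Nuclei were counted on 4× images after 5 days of treatment, and values are medians of duplicate plates.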

Compound in the experiment “IU1-47 + Palbociclib”: CC1=CC(=C(N1C2=CC=C(C=C2)Cl)C)C(=O)CN3CCCCC3 [IU1-47] + CC(=O)c1c(C)c2cnc(Nc3ccc(N4CCNCC4)cn3)nc2n(C2CCCC2)c1=O [Palbociclib] (partner 0.5 µM)
The method, boiled down: as §1

Compound in the experiment “IU1-47 + Navitoclax”: CC1=CC(=C(N1C2=CC=C(C=C2)Cl)C)C(=O)CN3CCCCC3 [IU1-47] + CC1(C)CCC(c2ccc(Cl)cc2)=C(CN2CCN(c3ccc(C(=O)NS(=O)(=O)c4ccc(N[C@H](CCN5CCOCC5)CSc5ccccc5)c(S(=O)(=O)C(F)(F)F)c4)cc3)CC2)C1 [Navitoclax] (partner 0.5 µM)
In a few lines:
as §1

Compound in the experiment “IU1-47 + Linsitinib”: CC1=CC(=C(N1C2=CC=C(C=C2)Cl)C)C(=O)CN3CCCCC3 [IU1-47] + C[C@]1(O)C[C@@H](c2nc(-c3ccc4ccc(-c5ccccc5)nc4c3)c3c(N)nccn32)C1 [Linsitinib] (partner 1 µM)
In a few lines: as §1

In the case of NCI-H727, the relative viability with IU1-47 + Trametinib (first compound 0.08 µM) turned out to be 0.438; with IU1-47 + Trametinib (first compound 0.253 µM) it was 0.349; with IU1-47 + Trametinib (first compound 0.8 µM), 0.369; with IU1-47 + Trametinib (first compound 2.53 µM) it was 0.375; with IU1-47 + Trametinib (first compound 8 µM), 0.368; in the experiment with IU1-47 + Palbociclib (first compound 0.08 µM) it was 0.642. Besides, the relative viability was found to be 0.648 with IU1-47 + Palbociclib (first compound 0.253 µM); 0.606 in the experiment with IU1-47 + Palbociclib (first compound 0.8 µM); 0.686 in the experiment with IU1-47 + Palbociclib (first compound 2.53 µM); 0.669 with IU1-47 + Palbociclib (first compound 8 µM); 0.454 with IU1-47 + Navitoclax (first compound 0.08 µM); 0.597 in the experiment with IU1-47 + Navitoclax (first compound 0.8 µM). The relative viability turned out to be 0.413 with IU1-47 + Navitoclax (first compound 2.53 µM); 0.391 with IU1-47 + Navitoclax (first compound 8 µM); 0.315 in the experiment with IU1-47 + Linsitinib (first compound 0.08 µM); 0.274 in the experiment with IU1-47 + Linsitinib (first compound 0.8 µM); 0.221 in the experiment with IU1-47 + Linsitinib (first compound 2.53 µM); 0.269 with IU1-47 + Linsitinib (first compound 8 µM).
Consider NCI-H838, for which the relative viability worked out at 0.521 with IU1-47 + Trametinib (first compound 0.08 µM); 0.472 in the experiment with IU1-47 + Trametinib (first compound 0.253 µM); 0.581 in the experiment with IU1-47 + Trametinib (first compound 0.8 µM); 0.501 in the experiment with IU1-47 + Trametinib (first compound 2.53 µM); 0.53 in the experiment with IU1-47 + Trametinib (first compound 8 µM); 0.181 with IU1-47 + Palbociclib (first compound 0.08 µM). Besides, the relative viability in the experiment with IU1-47 + Palbociclib (first compound 0.253 µM) was 0.222; in the experiment with IU1-47 + Palbociclib (first compound 0.8 µM) it was 0.225; with IU1-47 + Palbociclib (first compound 2.53 µM) it was 0.232; with IU1-47 + Palbociclib (first compound 8 µM), 0.236; with IU1-47 + Navitoclax (first compound 0.08 µM), 1.25; with IU1-47 + Navitoclax (first compound 0.253 µM), 1.21. Also, the relative viability in the experiment with IU1-47 + Navitoclax (first compound 0.8 µM) worked out at 1.32; with IU1-47 + Navitoclax (first compound 2.53 µM) it was 1.27; with IU1-47 + Navitoclax (first compound 8 µM) it was 1.15; with IU1-47 + Linsitinib (first compound 0.08 µM) it was 1.07; with IU1-47 + Linsitinib (first compound 0.253 µM), 1.07; with IU1-47 + Linsitinib (first compound 0.8 µM), 1.12. Also, the relative viability with IU1-47 + Linsitinib (first compound 2.53 µM) amounted to 1.09; with IU1-47 + Linsitinib (first compound 8 µM), 1.07.
As for NCI-H1355, the relative viability with IU1-47 + Trametinib (first compound 0.08 µM) came out at 0.432; in the experiment with IU1-47 + Trametinib (first compound 0.253 µM), 0.441; with IU1-47 + Trametinib (first compound 0.8 µM), 0.386; with IU1-47 + Trametinib (first compound 8 µM), 0.35; with IU1-47 + Palbociclib (first compound 0.08 µM), 0.422; with IU1-47 + Palbociclib (first compound 0.253 µM) it was 0.414. Further, the relative viability was determined as 0.41 with IU1-47 + Palbociclib (first compound 0.8 µM); 0.37 with IU1-47 + Palbociclib (first compound 8 µM); 0.946 in the experiment with IU1-47 + Navitoclax (first compound 0.08 µM); 0.943 in the experiment with IU1-47 + Navitoclax (first compound 0.253 µM); 0.977 in the experiment with IU1-47 + Navitoclax (first compound 0.8 µM); 0.898 with IU1-47 + Navitoclax (first compound 2.53 µM). Moreover, the relative viability in the experiment with IU1-47 + Navitoclax (first compound 8 µM) stood at 0.848; with IU1-47 + Linsitinib (first compound 0.08 µM) it was 0.873; with IU1-47 + Linsitinib (first compound 0.253 µM), 0.844; with IU1-47 + Linsitinib (first compound 0.8 µM) it was 0.933; in the experiment with IU1-47 + Linsitinib (first compound 2.53 µM) it was 0.74; with IU1-47 + Linsitinib (first compound 8 µM) it was 0.686.
Turning to NCI-H1395, the relative viability with IU1-47 + Trametinib (first compound 0.08 µM) turned out to be 1.16; with IU1-47 + Trametinib (first compound 0.253 µM), 1.13; with IU1-47 + Trametinib (first compound 0.8 µM) it was 1.06; with IU1-47 + Trametinib (first compound 2.53 µM), 0.914; with IU1-47 + Trametinib (first compound 8 µM), 0.803; with IU1-47 + Palbociclib (first compound 0.08 µM), 0.58. Also, the relative viability with IU1-47 + Palbociclib (first compound 0.253 µM) was found to be 0.569; in the experiment with IU1-47 + Palbociclib (first compound 0.8 µM), 0.631; with IU1-47 + Palbociclib (first compound 2.53 µM), 0.655; with IU1-47 + Palbociclib (first compound 8 µM) it was 0.567; with IU1-47 + Navitoclax (first compound 0.08 µM), 1.03; with IU1-47 + Navitoclax (first compound 0.253 µM), 1.07. Moreover, the relative viability in the experiment with IU1-47 + Navitoclax (first compound 0.8 µM) came out at 1.14; with IU1-47 + Navitoclax (first compound 8 µM) it was 1.15; with IU1-47 + Linsitinib (first compound 0.08 µM), 1.04; with IU1-47 + Linsitinib (first compound 0.253 µM), 1.07; in the experiment with IU1-47 + Linsitinib (first compound 0.8 µM), 0.978; with IU1-47 + Linsitinib (first compound 8 µM), 0.987.
Turning to NCI-H1437, the relative viability in the experiment with IU1-47 + Trametinib (first compound 0.08 µM) came to 0.48; in the experiment with IU1-47 + Trametinib (first compound 0.253 µM), 0.485; in the experiment with IU1-47 + Trametinib (first compound 0.8 µM), 0.556; with IU1-47 + Trametinib (first compound 2.53 µM) it was 0.391; in the experiment with IU1-47 + Trametinib (first compound 8 µM), 0.496; in the experiment with IU1-47 + Palbociclib (first compound 0.08 µM), 0.284. For the same cell line, the relative viability with IU1-47 + Palbociclib (first compound 0.253 µM) worked out at 0.281; with IU1-47 + Palbociclib (first compound 0.8 µM), 0.344; with IU1-47 + Palbociclib (first compound 2.53 µM) it was 0.282; with IU1-47 + Palbociclib (first compound 8 µM), 0.294; in the experiment with IU1-47 + Navitoclax (first compound 0.08 µM), 1.15; in the experiment with IU1-47 + Navitoclax (first compound 0.253 µM), 1.08. The relative viability with IU1-47 + Navitoclax (first compound 0.8 µM) worked out at 1.1; in the experiment with IU1-47 + Navitoclax (first compound 2.53 µM), 0.982; with IU1-47 + Navitoclax (first compound 8 µM), 0.955; with IU1-47 + Linsitinib (first compound 0.08 µM) it was 1.11; with IU1-47 + Linsitinib (first compound 0.253 µM), 1.02; with IU1-47 + Linsitinib (first compound 0.8 µM), 0.959. For the same cell line, the relative viability is 1.01 in the experiment with IU1-47 + Linsitinib (first compound 2.53 µM) and 0.704 with IU1-47 + Linsitinib (first compound 8 µM).
Consider NCI-H1651, for which the relative viability worked out at 0.885 with IU1-47 + Trametinib (first compound 0.08 µM); 0.856 with IU1-47 + Trametinib (first compound 0.253 µM); 0.806 with IU1-47 + Trametinib (first compound 0.8 µM); 0.824 in the experiment with IU1-47 + Trametinib (first compound 2.53 µM); 0.811 with IU1-47 + Trametinib (first compound 8 µM); 0.525 with IU1-47 + Palbociclib (first compound 0.08 µM). In addition, the relative viability worked out at 0.539 with IU1-47 + Palbociclib (first compound 0.253 µM); 0.495 in the experiment with IU1-47 + Palbociclib (first compound 0.8 µM); 0.523 with IU1-47 + Palbociclib (first compound 2.53 µM); 0.523 in the experiment with IU1-47 + Palbociclib (first compound 8 µM); 1.25 with IU1-47 + Navitoclax (first compound 0.08 µM); 1.13 in the experiment with IU1-47 + Navitoclax (first compound 0.253 µM). Moreover, the relative viability in the experiment with IU1-47 + Navitoclax (first compound 0.8 µM) was 1.16; in the experiment with IU1-47 + Navitoclax (first compound 8 µM), 1.12; in the experiment with IU1-47 + Linsitinib (first compound 0.08 µM), 1.22; in the experiment with IU1-47 + Linsitinib (first compound 0.253 µM), 1.14; in the experiment with IU1-47 + Linsitinib (first compound 0.8 µM) it was 1; with IU1-47 + Linsitinib (first compound 8 µM) it was 0.771.
In the case of NCI-H1666, the relative viability in the experiment with IU1-47 + Trametinib (first compound 0.08 µM) amounted to 1; with IU1-47 + Trametinib (first compound 0.253 µM), 0.871; with IU1-47 + Trametinib (first compound 0.8 µM) it was 0.851; with IU1-47 + Trametinib (first compound 2.53 µM), 0.916; with IU1-47 + Trametinib (first compound 8 µM) it was 0.901; in the experiment with IU1-47 + Palbociclib (first compound 0.08 µM) it was 0.695. Also, the relative viability was 0.652 with IU1-47 + Palbociclib (first compound 0.253 µM); 0.695 in the experiment with IU1-47 + Palbociclib (first compound 0.8 µM); 0.682 with IU1-47 + Palbociclib (first compound 2.53 µM); 0.63 in the experiment with IU1-47 + Palbociclib (first compound 8 µM); 1.1 with IU1-47 + Navitoclax (first compound 0.08 µM); 1.04 with IU1-47 + Navitoclax (first compound 0.253 µM). In addition, the relative viability in the experiment with IU1-47 + Navitoclax (first compound 0.8 µM) was found to be 0.89; with IU1-47 + Navitoclax (first compound 2.53 µM) it was 0.912; with IU1-47 + Navitoclax (first compound 8 µM) it was 0.824; in the experiment with IU1-47 + Linsitinib (first compound 0.08 µM) it was 0.759; with IU1-47 + Linsitinib (first compound 0.253 µM) it was 0.775; with IU1-47 + Linsitinib (first compound 0.8 µM), 0.773. The relative viability was found to be 0.708 with IU1-47 + Linsitinib (first compound 2.53 µM) and 0.757 with IU1-47 + Linsitinib (first compound 8 µM).
In the case of NCI-H1734, the relative viability with IU1-47 + Trametinib (first compound 0.08 µM) was 0.867; with IU1-47 + Trametinib (first compound 0.253 µM) it was 0.67; with IU1-47 + Trametinib (first compound 0.8 µM) it was 0.593; in the experiment with IU1-47 + Trametinib (first compound 2.53 µM) it was 0.647; with IU1-47 + Trametinib (first compound 8 µM) it was 0.645; with IU1-47 + Palbociclib (first compound 0.08 µM) it was 0.353. The relative viability came to 0.355 with IU1-47 + Palbociclib (first compound 0.253 µM); 0.314 with IU1-47 + Palbociclib (first compound 0.8 µM); 0.367 with IU1-47 + Palbociclib (first compound 2.53 µM); 0.322 in the experiment with IU1-47 + Palbociclib (first compound 8 µM); 0.943 with IU1-47 + Navitoclax (first compound 0.08 µM); 0.873 with IU1-47 + Navitoclax (first compound 0.253 µM). Further, the relative viability was determined as 0.823 in the experiment with IU1-47 + Navitoclax (first compound 0.8 µM); 0.734 with IU1-47 + Navitoclax (first compound 8 µM); 0.883 with IU1-47 + Linsitinib (first compound 0.08 µM); 0.954 with IU1-47 + Linsitinib (first compound 0.253 µM); 0.876 in the experiment with IU1-47 + Linsitinib (first compound 0.8 µM); 0.781 with IU1-47 + Linsitinib (first compound 8 µM).
